Structures are written as SMILES. Non-standard residues stand in square brackets, D forms with d. Residues, ends and D or L forms follow the SMILES beside them. *: point of attachment. FITC = O=C1OC2(c3ccc(O)cc3Oc3cc(O)ccc32)c2ccc(NC(=S)*)cc21; PEG8 = NCCOCCOCCOCCOCCOCCOCCOCCOCCC(=O)O; PEG6 = NCCOCCOCCOCCOCCOCCOCCC(=O)O; PEG2 = NCCOCCOCCC(=O)O; X7 = Fc1ccc(O*)cc1

20 compounds from patent publication US20230128688A1, “DIRECTED CONJUGATION TECHNOLOGIES” (KLEO PHARMACEUTICALS, INC., priority 2019, published 2023) can be followed below.

The subject of this experiment is daratumumab. The experiment in a line: Absorbance based DAR analysis of FITC conjugation to antibody. Format: biochemical. The method, then: In some embodiments, reaction partners, e.g., compounds of formula R-I or salts thereof ere dissolved in DMSO to 5 mM stock solution.
In some embodiments, reactions are set up with 300 micrograms of antibody. In some embodiments, various conditions, including various buffers, reagent equivalents, reaction time, reaction temperature and reaction concentrations can be utilized.
As an example, one reaction is 300 microliter reaction with 1 mg/mL of antibody in PBS. Peptide I-45 (1 microliter of 5 mM stock in DMSO, 2.5 molar equivalents relative to daratumumab) was diluted in 284 microliters of PBS buffer (10 mM phosphate, 150 mM sodium chloride, pH 7.4), then 15 microliters of daratumumab (20 mg/mL stock) was added to the reaction mixture followed by incubation at room temperature in the dark. After 4 h reaction buffer was exchanged using Amicon Ultra centrifuge filter (30 KDa MWCO, 0.5 mL volume). First, glycine buffer (100 mM, pH 2.1) was used for buffer exchange to ensure dissociation of target binding moieties after reaction. Then, phosphate buffer saline (pH 7.4) was used for further buffer exchange and storage.
In another example, a reaction is 300 microliter reaction with 1 mg/mL of antibody in borate buffer. Peptide I-44 (1.2 microliter of 5 mM stock in DMSO, 3.0 molar equivalents relative to daratumumab) was diluted in 284 microliters of Borate buffer (100 mM borate, pH 8.3), then 15 microliters of daratumumab (20 mg/mL stock) was added to the reaction mixture followed by incubation at room temperature in the dark. After 20 h reaction buffer was exchanged using Amicon Ultra centrifuge filter (30 KDa MWCO, 0.5 mL volume). First, glycine buffer (100 mM, pH 2.1) was used for buffer exchange to ensure dissociation of target binding moieties after reaction. Then, phosphate buffer saline (10 mM phosphate, 150 mM sodium chloride, pH 7.4) was used for further buffer exchange and storage.
In some embodiments, a useful technology is absorbance based DAR analysis. DAR (ratio of moieties of interest and target agent moieties (e.g., antibody agent moieties) was calculated for various antibody conjugates, e.g., in various reagent screening/assessment methods. Various agents comprising target binding moieties were assessed for conjugation efficiency as reaction partners with targets, e.g. protein agents such as antibody agents, compared to reagents with the same reactive groups but without target binding moieties. In various ratio determination ‘Drug’/moiety of interest is fluorescein isothiocyanate (FITC) dye conjugated to target agents, e.g., antibody agents. DAR molar ratio is defined as a ratio of moles of drug/moiety of interest to moles of target agent/antibody. Molarity is calculated from absorbance of FITC (A485) and antibody (A280) of conjugated product, and extinction coefficients of FITC and antibody using Beer-Lambert law. Correction coefficient 0.35 was used to correct for absorbance of FITC at 280 nm. Biotek Synergy H1 microplate reader and Take3 microvolume plate were used for absorbance measurements. Concentration of antibody was at least 3 mg/mL for optimal signal-to-noise in the readings. Certain target binding moieties that can provide higher DAR compared to equivalent controls (absence of target binding moieties) were selected as hits for further analysis. Certain assessment data were provided below as examples.

The mark [1] stands for this setting: 10 M eq reagent, Bicarbonate buffer pH 8.3, 2 h, 37 C, Drug = FITC.
The mark [2] stands for this setting: 2.5 M eq reagent, phosphate buffer saline pH 7.4, 4 h, 25 C, Drug = FITC.
The mark [3] stands for this setting: 30 M eq reagent, borate buffer pH 8.3, 20 h, 37 C, Drug = FITC.
[4] abbreviates: 5 M eq reagent, bicarbonate buffer pH 8.3, 20 h, 37 C, Drug = FITC.
The mark [5] stands for this setting: 10 M eq reagent, Bicarbonate buffer pH 8.3, 20 h, 25 C, Drug = FITC.
Where [6] appears, read: 5 M eq reagent, phosphate buffer saline pH 7.4, 4 h, 25 C, Drug = FITC.

As for `COc1ccc(NC(=O)c2cn3ccsc3n2)cc1C(=O)NCCCC(=O)NCc1cc(F)c(OC(=O)CCOCCOCCOCCOCCOCCOCCNC(=S)Nc2ccc3c(c2)C(=O)OC32c3ccc(O)cc3Oc3cc(O)ccc32)c(F)c1` [Compound I-1], the DAR under setting [1] stood at 1.00.
As to `CCCCNc1nc(NCCOCCOCCC(=O)NCc2cc(F)c(OC(=O)CCOCCOCCOCCOCCOCCOCCNC(=S)Nc3ccc4c(c3)C(=O)OC43c4ccc(O)cc4Oc4cc(O)ccc43)c(F)c2)nc(NCc2cccc(F)c2)n1` [Compound I-2], the DAR under setting [1] is 1.76.
As to `Cc1nc2cc(C(=O)Nc3nc(-c4ccccn4)cs3)ccc2n1CCCC(=O)NCc1cc(F)c(OC(=O)CCOCCOCCOCCOCCOCCOCCNC(=S)Nc2ccc3c(c2)C(=O)OC32c3ccc(O)cc3Oc3cc(O)ccc32)c(F)c1` [Compound I-3], the DAR under setting [1] was determined as 1.39.
In the case of `CC(=O)NCc1ccc(OC(=O)CCOCCOCCOCCOCCOCCOCCNC(=S)Nc2ccc3c(c2)C(=O)OC32c3ccc(O)cc3Oc3cc(O)ccc32)c(F)c1` [Compound I-10], the DAR under setting [2] came to 0.08; the DAR (2.5 M eq, 25 C, 4 h, PBS pH 7.4) is on record as 0.08; the DAR (2.5 M eq, 25 C, 20 h, Borate pH 8.2) was determined as 0.21; the DAR (2.5 M eq, 25 C, 20 h, PBS pH 7.4) worked out at 0.07; the DAR (2.5 M eq, 25 C, 20 h, PBS pH 7.8) was 0.15; the DAR (2.5 M eq, 25 C, 20 h, PBS pH 8.0) was 0.06. Further, the DAR was found to be 0.03 (2.5 M eq, 25 C, 20 h, PBS pH 8.2); 0.05 (2.5 M eq, 30 C, 20 h, PBS pH 7.4); 0.17 (2.5 M eq, 37 C, 20 h, PBS pH 7.4); 0.14 under setting [1]; 0.98 under setting [3].
For the compound `CC(=O)NCc1ccc(OC(=O)CCOCCOCCOCCOCCOCCOCCNC(=S)Nc2ccc3c(c2)C(=O)OC32c3ccc(O)cc3Oc3cc(O)ccc32)cc1` [Compound I-11], the DAR by setting is: under setting [2], 0.05; under setting [1], 0.14; under setting [3], 0.14.
For `Cc1nc2cc(C(=O)Nc3nc(-c4ccccn4)cs3)ccc2n1CCCC(=O)NCc1ccc(OC(=O)CCOCCOCCOCCOCCOCCOCCNC(=O)Nc2ccc3c(c2)C(=O)OC32c3ccc(O)cc3Oc3cc(O)ccc32)c(F)c1` [Compound I-12], the DAR under setting [4] is reported as 1.44.
`Cc1nc2cc(C(=O)Nc3nc(-c4ccccn4)cs3)ccc2n1CCCC(=O)NCc1ccc(OC(=O)CCOCCOCCOCCOCCOCCOCCNC(=S)Nc2ccc3c(c2)C(=O)OC32c3ccc(O)cc3Oc3cc(O)ccc32)cc1` [Compound I-13]: under setting [4], the DAR is 0.09.
With `CCCCNc1nc(NCCOCCOCCC(=O)NCc2ccc(OC(=O)CCOCCOCCOCCOCCOCCOCCNC(=S)Nc3ccc4c(c3)C(=O)OC43c4ccc(O)cc4Oc4cc(O)ccc43)c(F)c2)nc(NCc2cccc(F)c2)n1` [Compound I-14], under setting [1], the DAR amounted to 0.29.
As to `CCCCNc1nc(NCCOCCOCCC(=O)NCc2ccc(OC(=O)CCOCCOCCOCCOCCOCCOCCNC(=S)Nc3ccc4c(c3)C(=O)OC43c4ccc(O)cc4Oc4cc(O)ccc43)cc2)nc(NCc2cccc(F)c2)n1` [Compound I-15], the DAR under setting [1] is reported as 0.74.
On to `O=C(CCCc1c[nH]c2ccccc12)NCc1cc(F)c(OC(=O)CCOCCOCCOCCOCCOCCOCCNC(=S)Nc2ccc3c(c2)C(=O)OC32c3ccc(O)cc3Oc3cc(O)ccc32)c(F)c1` [Compound I-16], for which the DAR under setting [4] was found to be 0.30.
For `O=C(CCCc1c[nH]c2ccccc12)NCc1ccc(OC(=O)CCOCCOCCOCCOCCOCCOCCNC(=S)Nc2ccc3c(c2)C(=O)OC32c3ccc(O)cc3Oc3cc(O)ccc32)c(F)c1` [Compound I-17], under setting [4], the DAR is listed as 0.37.
`CCNC(=O)c1ccc(OC(=O)CCOCCOCCOCCOCCOCCOCCNC(=S)Nc2ccc3c(c2)C(=O)OC32c3ccc(O)cc3Oc3cc(O)ccc32)cc1` [Compound I-19]: under setting [2], the DAR amounted to 0.20.
In the case of `COc1ccc(NC(=O)c2cn3ccsc3n2)cc1C(=O)NCCCC(=O)N[C@@H](CCC(=O)N(C)OC)C(=O)NCCOCCOCCOCCOCCOCCOCCOCCOCCN(CCCS(=O)(=O)O)C(=O)OC[C@H]1[C@@H]2CCc3c(nnn3CCOCCOCCOCCOCCNC(=S)Nc3ccc4c(c3)C(=O)OC43c4ccc(O)cc4Oc4cc(O)ccc43)CC[C@@H]21` [Compound I-20], the DAR under setting [5] is 0.72.
With `N=C(N)NCCC[C@H](NC(=O)CCOCCOCCOCCOCCOCCOCCOCCOCCNC(=O)c1ccc(OC(=O)CCOCCOCCOCCOCCOCCOCCNC(=S)Nc2ccc3c(c2)C(=O)OC32c3ccc(O)cc3Oc3cc(O)ccc32)cc1)C(=O)N[C@@H](CCCNC(=N)N)C(=O)NCC(=O)N[C@@H](Cc1c[nH]c2ccccc12)C(=O)O` [Compound I-21], the DAR under setting [5] was found to be 0.18.
On the same count and under the same terms, next, `N=C(N)NCCC[C@H](NC(=O)CCOCCOCCOCCOCCNC(=O)c1ccc(OC(=O)CCOCCOCCOCCOCCOCCOCCNC(=S)Nc2ccc3c(c2)C(=O)OC32c3ccc(O)cc3Oc3cc(O)ccc32)cc1)C(=O)N[C@@H](CCCNC(=N)N)C(=O)NCC(=O)N[C@@H](Cc1c[nH]c2ccccc12)C(=O)O` [Compound I-22]: −0.18.
The same measure, in the same setting: under `N=C(N)NCCC[C@H](NC(=O)CCOCCOCCNC(=O)c1ccc(OC(=O)CCOCCOCCOCCOCCOCCOCCNC(=S)Nc2ccc3c(c2)C(=O)OC32c3ccc(O)cc3Oc3cc(O)ccc32)cc1)C(=O)N[C@@H](CCCNC(=N)N)C(=O)NCC(=O)N[C@@H](Cc1c[nH]c2ccccc12)C(=O)O` [Compound I-23] stands 0.14.
Consider `CC(=O)N[C@@H](CC(=O)O)C(=O)N[C@H]1CSSC[C@@H](C(=O)N[C@H](C(=O)O)[C@@H](C)O)NC(=O)[C@H](Cc2c[nH]c3ccccc23)NC(=O)[C@H](C(C)C)NC(=O)[C@H](CC(C)C)NC(=O)[C@H](CCC(=O)O)NC(=O)CNC(=O)[C@H](CCC(=O)Nc2cc(OC(=O)CCOCCOCCOCCOCCOCCOCCOCCOCCNC(=S)Nc3ccc4c(c3)C(=O)OC43c4ccc(O)cc4Oc4cc(O)ccc43)ccc2F)NC(=O)[C@H](Cc2c[nH]cn2)NC(=O)[C@H](Cc2c[nH]c3ccccc23)NC(=O)[C@H](C)NC1=O` [Compound I-24], for which the DAR is, setting by setting: under setting [6], 0.05; under setting [3], 0.83.
On to `CC(C)C[C@@H]1NC(=O)[C@H](Cc2cnc[nH]2)NC(=O)[C@H](Cc2c[nH]c3ccccc23)NC(=O)[C@H](C)NC(=O)[C@@H](NC(=O)[C@@H](N)CC(=O)O)CSSC[C@@H](C(=O)N[C@H](C(=O)O)[C@@H](C)O)NC(=O)[C@H](Cc2c[nH]c3ccccc23)NC(=O)[C@H](C(C)C)NC(=O)[C@H](CC(C)C)NC(=O)[C@H](CCC(=O)Nc2cc(OC(=O)CCOCCOCCOCCOCCOCCOCCOCCOCCNC(=S)Nc3ccc4c(c3)C(=O)OC43c4ccc(O)cc4Oc4cc(O)ccc43)ccc2F)NC(=O)CNC1=O` [Compound I-25], for which the DAR by setting is: under setting [6], 0.10; under setting [3], 1.25.
On to `N=C(N)NCCC[C@H](NC(=O)CCOCCOCCNC(=O)[C@@H](CCC(=O)Oc1ccc(F)cc1)NC(=O)CCOCCOCCOCCOCCOCCOCCNC(=S)Nc1ccc2c(c1)C(=O)OC21c2ccc(O)cc2Oc2cc(O)ccc21)C(=O)N[C@@H](CCCNC(=N)N)C(=O)NCC(=O)N[C@@H](Cc1c[nH]c2ccccc12)C(=O)O` [Compound I-26] ({FITC-PEG6}-[dE](X7)[PEG2]RRGW-OH), for which the DAR under setting [3] is −0.10.
Take `N=C(N)NCCC[C@H](NC(=O)CCOCCOCCOCCOCCOCCOCCOCCOCCNC(=O)[C@H](CCC(=O)Oc1ccc(F)cc1)NC(=O)CCOCCOCCOCCOCCOCCOCCNC(=S)Nc1ccc2c(c1)C(=O)OC21c2ccc(O)cc2Oc2cc(O)ccc21)C(=O)N[C@@H](CCCNC(=N)N)C(=O)NCC(=O)N[C@@H](Cc1c[nH]c2ccccc12)C(=O)O` [Compound I-27] ({FITC-PEG6}-E(X7)[PEG8]RRGW-OH): the DAR under setting [3] was −0.02.
